Measured values taken from patent US20100130613A1, “ADMINISTRATION OF ADAPALENE FOR MODULATING THE EXPRESSION OF CD1d OR IL-10” (GALDERMA RESEARCH & DEVELOPMENT, priority 2007, published 2010).

Legend:
RARγ = target: T1, RARγ (Homo sapiens, UniProt P13631); details: background statement; cited from earlier work
T1 sequence (P13631 1-454): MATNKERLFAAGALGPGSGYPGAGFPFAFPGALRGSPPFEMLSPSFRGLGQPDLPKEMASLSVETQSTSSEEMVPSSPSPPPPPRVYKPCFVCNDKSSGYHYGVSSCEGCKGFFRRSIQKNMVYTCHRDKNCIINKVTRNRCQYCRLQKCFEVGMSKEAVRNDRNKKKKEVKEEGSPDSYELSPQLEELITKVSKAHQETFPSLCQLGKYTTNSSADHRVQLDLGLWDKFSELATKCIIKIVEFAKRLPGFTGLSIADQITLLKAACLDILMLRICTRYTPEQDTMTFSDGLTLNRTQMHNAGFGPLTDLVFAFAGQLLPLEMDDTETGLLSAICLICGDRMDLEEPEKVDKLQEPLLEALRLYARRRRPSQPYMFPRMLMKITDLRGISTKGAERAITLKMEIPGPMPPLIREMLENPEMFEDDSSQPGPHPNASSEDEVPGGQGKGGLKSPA

[1] = test system: superficial inflammatory lesions; details: clinically; Millikan, Int. J. Dermatol. 2000; cited from earlier work
CD1d [2] = test: CD1d expression in healthy human skin explants, immunohistochemistry; format: cell-based; details: 24 hours, versus control medium
Procedure: (§1) Healthy human skin: fragments of healthy skin originating from 8 healthy donors were obtained from a mammary plasty (plastic surgery) or a foreskin (infant surgery).
(§2) Fragments (4 mm in diameter) originating from biopsies of inflammatory skin, considered to be an inflammatory model, and of healthy skin, were incubated at 37° C. in a humid atmosphere and in the presence of 5% CO2 for 24 hours in KGM culture medium without hydrocortisone (PromoCell GmbH, Heidelberg, Germany). The culture medium was supplemented with two different concentrations of adapalene (Galderma, Sophia Antipolis, France): 10^−7 M and 10^−6 M. The culture medium alone served as control medium.
(§3) After incubation, the explants were removed from the culture medium and were then frozen in liquid nitrogen for the immunohistochemical study. The culture supernatants were stored at −80° C. for subsequent measurement of protein secretion, by an ELISA assay technique. […]
(§4) The labeling intensity was quantified according to a semi-quantitative scale: none (0), weak (1), medium (2) and strong (3). For each slide, the labeling intensity was determined using a mean of three fields. […] The reading was performed by two independent investigators.
(§5) All the results are expressed as mean +/−SEM. The statistical significance of differences from the values (by comparison to the control medium) was determined by means of the paired Wilcoxon test. […]

RARβ = target: T2, RARβ (Homo sapiens, UniProt P10826); details: background statement; cited from earlier work
T2 sequence (P10826 1-455): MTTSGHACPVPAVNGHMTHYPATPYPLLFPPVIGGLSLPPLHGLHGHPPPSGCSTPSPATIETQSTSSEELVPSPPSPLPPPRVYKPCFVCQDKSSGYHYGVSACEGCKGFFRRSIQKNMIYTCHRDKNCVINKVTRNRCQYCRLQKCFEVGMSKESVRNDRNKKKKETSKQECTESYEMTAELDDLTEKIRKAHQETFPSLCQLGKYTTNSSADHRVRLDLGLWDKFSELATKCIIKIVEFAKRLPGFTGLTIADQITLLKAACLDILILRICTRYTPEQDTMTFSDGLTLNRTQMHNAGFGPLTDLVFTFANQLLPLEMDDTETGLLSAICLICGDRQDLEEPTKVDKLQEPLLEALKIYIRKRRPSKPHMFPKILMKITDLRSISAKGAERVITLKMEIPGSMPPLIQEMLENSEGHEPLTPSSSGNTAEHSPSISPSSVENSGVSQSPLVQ

IL-10 [3] = test: IL-10 expression in healthy human skin explants, immunohistochemistry; format: cell-based; details: 24 hours
Procedure: as §1, §2, §3, §4, §5

IL-10 [4] = test: IL-10 expression in acneic skin explants, immunohistochemistry; format: cell-based, human; details: 24 hours, control medium 1.9 (+/−0.4)
Text: (§6) Inflammatory lesions of acne: a skin biopsy (1×1.5 cm) was obtained under local anaesthesia from a superficial inflammatory lesion (papula) on the back in 8 patients suffering from moderate acne and undergoing no topical treatment (for the last two weeks) or general treatment (for the last month, or three months for isotretinoin). The fragments taken were immediately placed in culture.
(§7) Fragments (4 mm in diameter) originating from biopsies of inflammatory skin, considered to be an inflammatory model, and of healthy skin, were incubated at 37° C. in a humid atmosphere and in the presence of 5% CO2 for 24 hours in KGM culture medium without hydrocortisone (PromoCell GmbH, Heidelberg, Germany). The culture medium was supplemented with two different concentrations of adapalene (Galderma, Sophia Antipolis, France): 10^−7 M and 10^−6 M. The culture medium alone served as control medium. […]
as §4, §5

IL-10 [5] = test: IL-10 secretion in culture supernatants of acneic skin explants, ELISA; format: cell-based, human; details: 24 hours, control medium 5.7 pg/ml (+/−7.1)
Text: as §6, §7
(§8) The concentrations of IL-10 were measured in the culture supernatants using a solid-phase ELISA (Enzyme Linked ImmunoSorbent Assay) sandwich kit, obtained from BioSource (International Inc, Ca, USA).
(§9) The slides were read at 450 nm using an Emax reader (Molecular Devices, CA, USA). […]
as §5

leukotrienes = details: background statement; cited from earlier work
CD1d [6] = test: CD1d expression in acneic skin explants, immunohistochemistry; format: cell-based, human; details: 24 hours, control medium 0.9 (+/−0.2), p=0.034
Text: as §6, §7, §4, §5

lipoxygenase pathway = details: background statement; cited from earlier work
[7] = test system: polymorphonuclear neutrophils; details: background statement; cited from earlier work
IL-10 [8] = test: IL-10 secretion in culture supernatants of healthy human skin explants, ELISA; format: cell-based; details: 24 hours, control medium 17.8 pg/ml
Procedure: as §1, §2
After incubation, the explants were removed from the culture medium and were then frozen in liquid nitrogen for the immunohistochemical study. […]
as §8, §9, §5

[9] = test system: cellular retinoic acid binding proteins; details: background statement; cited from earlier work
free radicals = details: background statement; cited from earlier work

## COc1ccc(-c2ccc3cc(C(=O)O)ccc3c2)cc1C12CC3CC(CC(C3)C1)C2 [adapalene, 6-[3-(1-adamantyl)-4-methoxyphenyl]-2-naphthoic acid]
RARγ
  binding to RARγ: binds selectively
[1]
  clinical activity on superficial inflammatory lesions: exhibits an activity on superficial inflammatory lesions
CD1d [2]; 10^−6 M adapalene, p=0.035
  expression of CD1d in the epidermis (labeling intensity): significantly decreases
CD1d [2]; 10^−7 M adapalene, p=0.023
  expression of CD1d in the epidermis (labeling intensity): significantly decreases
RARβ
  binding to RARβ: binds selectively
IL-10 [3]; 10^−6 M adapalene, versus control medium, p=0.016
  inhibitory effect on the expression of IL-10: significant
IL-10 [3]; 10^−7 M and 10^−6 M adapalene, dose-dependent
  expression of IL-10 in the epidermis (labeling intensity): significantly decreases
IL-10 [4]; 10^−6 M adapalene, p=0.0199
  intensity of IL-10 expression (scale 0-3, mean +/−SEM): 0.6 (+/−0.2)
IL-10 [4]; 10^−7 M adapalene, p=0.024
  intensity of IL-10 expression (scale 0-3, mean +/−SEM): 0.9 (+/−0.2)
IL-10 [5]; 10^−6 M adapalene
  IL-10 level in supernatants: 4.0 pg/mL
IL-10 [5]; 10^−7 M adapalene
  IL-10 level in supernatants: 6.1 pg/mL
leukotrienes
  production of leukotrienes via the lipoxygenase pathway: inhibits
CD1d [6]; 10^−6 M adapalene
  expression of CD1d (labeling intensity, scale 0-3, mean +/−SEM): 1.5 (+/−0.5)
CD1d [6]; 10^−7 M adapalene
  expression of CD1d (labeling intensity, scale 0-3, mean +/−SEM): 1.5 (+/−0.5)
Lipoxygenase pathway
  oxidative metabolism of arachidonic acid via the lipoxygenase pathway: inhibits
[7]
  chemotaxis of polymorphonuclear neutrophils: inhibits
IL-10 [8]; 10^−6 M adapalene
  secretion of IL-10 in supernatants: No modulation
IL-10 [8]; 10^−7 M adapalene
  secretion of IL-10 in supernatants: increases the secretion of IL-10
[9]
  binding to cellular retinoic acid binding proteins: does not, on the other hand, bind
Free radicals
  production of free radicals: inhibits
